Source: paper PMC10299588, “Bromotyrosine-Derived Metabolites from a Marine Sponge Inhibit Pseudomonas aeruginosa Biofilms” (International Journal of Molecular Sciences, 2023)
In brackets after ≈: the same amount, converted by molar mass. Entries after “also recorded” stand apart in the source; their conditions may differ. Where two headings read alike, the source gives them in different places.

Columns and labels:
[1] = test system: planktonic P. aeruginosa PAO1; experiment: Minimum inhibitory concentration (MIC) determination; assay type: cell-based, Pseudomonas aeruginosa; conditions: for antimicrobial activity against P. aeruginosa PAO1: up to the highest concentrations applied
Experimental: The minimum inhibitory concentration (MIC) of compounds and antibiotics were performed as previously described, with minor modification. […] Three antibiotics, including tobramycin, ciprofloxacin, and meropenem, were dissolved in water and filter sterilized. Ten microliters of two-fold serially diluted antibiotics were transferred to a 96-well Costar plate (Corning Inc., Corning, MA, USA) followed by the addition of 90 µL of diluted cultures. After an 18-h incubation at 37 °C in the static condition, optical density OD600 was monitored using a Synergy 2 microplate reader (BioTek, Winooski, VT, USA). […] The MIC was determined as the lowest concentrations of antibiotics that inhibit complete bacterial growth compared to growth control.

planktonic PAO1 = experiment: Checkerboard assay with antibiotics; assay type: cell-based, Pseudomonas aeruginosa; set-up: MIC of ciprofloxacin reduced to: unit not given beside the values; conditions: for MIC of ciprofloxacin reduced to: in combination with compound; for synergy with ciprofloxacin: planktonic PAO1
Experimental: The synergistic activity of compounds with antibiotics, including tobramycin, ciprofloxacin and meropenem, was investigated by a checkerboard dilution assay. Briefly, mid-log cultures of P. aeruginosa were diluted 1:1250 before being added to the plates. Next, 90 µL aliquots of diluted cells were added to a 96-well Costar (Corning) plate containing either 10 µL of compounds and/or 10 µL of antibiotics. Compounds and antibiotics were tested at 11 and 7 concentrations, respectively. The first row contained antibiotics alone, while the first column contained compounds alone, and the remaining columns were for combinations.

[2] = test system: efflux pumps of P. aeruginosa; experiment: Ethidium bromide efflux assay; assay type: cell-based, Pseudomonas aeruginosa; conditions: for efflux pump inhibition (intracellular EtBr accumulation): 60 min, compound 3 at 53.1 and 106.2 µg/mL
Description: We performed the ethidium bromide (EtBr) efflux assay to assess the ability of test compounds to inhibit efflux pumps of P. aeruginosa. The DNA-intercalating dye EtBr is a common substrate of the resistance-nodulation-cell division (RND) family. The dye only fluoresces when bound to DNA in the cytoplasm. The disruption of efflux pumps such as the RND pump AcrB enhances the accumulation of the substrate within the cells over time until it reaches a steady state. (Figure 5C).
To investigate the efflux pump-inhibiting activity of test compounds on wild-type PAO1, an efflux assay using ethidium bromide (EtBr) as a substrate was performed as previously described. An overnight culture of PAO1 in LB broth was incubated in a shaker at 37 °C until it reached an OD600 of 0.5. The bacterial cells were washed with phosphate buffered saline (PBS) and centrifuged, and the pellet was resuspended in PBS. Test compounds, 5 µL, were added to the flat-bottomed, black 96-well-plate followed by addition of 90 µL of the bacterial suspension. EtBr at a non-toxic concentration (5 µL, 2 µg/mL) was added before the plates were read. The fluorescence reading was recorded at an excitation of 530 nm and emission of 590 nm every min for 60 min using a BioTek Synergy H1 Hybrid microplate reader. Carbonyl cyanide m-chlorophenyl hydrazone (CCCP), a chemical inhibitor of efflux pumps, was used as the positive control, and DMSO (1–2%) was used as the vehicle control, as compounds were dissolved in DMSO. Untreated cells were used as the negative control.

PAO1 biofilms = experiment: Fluorescence microscopy of biofilms (SYTO9/propidium iodide); assay type: cell-based, Pseudomonas aeruginosa
Experimental: (§1) Biofilms of wild-type PAO1 and isogenic biofilm matrix component mutants were treated with ianthelliformisamines or ciprofloxacin alone and the combinations. Their biofilms were simultaneously stained with SYTO9 (green) and propidium iodide (red). Cells with intact membranes were stained green, while cells with compromised membranes were stained red.
(§2) For biofilm bacteria imaging, bacteria were cultured, treated with test compounds, and washed, as previously mentioned in the biofilm inhibition assay. The biofilm bacteria were stained using a LIVE/DEAD BacLight bacterial viability kit (Molecular Probes, Inc., Eugene, OR, USA), which consists of SYTO9 (green; staining cells with intact membrane) and propidium iodide (red; staining cells with compromised membrane). Images were captured using a high-content imaging system Operetta CLS (Perkin Elmer, Waltham, MA, USA) with a 60× water-immersion objective.

PAO1ΔpslA biofilms = experiment: as above; assay type: cell-based, Pseudomonas aeruginosa
Experimental: as §1, §2

PDO300 biofilms = experiment: as above; assay type: cell-based, Pseudomonas aeruginosa; conditions: for biofilm after treatment: compound alone
Experimental: as §1, §2

PAO1ΔpelF biofilms = assay type: cell-based, Pseudomonas aeruginosa
Experimental: as §1, §2

[3] = Stability in liver microsomes; assay type: in vitro ADME, mouse; conditions: for hepatic extraction: calculated from microsomal half-life, fu = 1 assumed; for level of hepatic extraction: classification system of Houston 1994; for half-life at 1 µM: male, CD-1, mouse, liver microsomes
Experimental: (§3) The metabolic assays were performed based on a previously described method. […] The final organic (ACN) concentration in the incubation tubes was 1%. […] Samples (50 μL) were removed at t = 0 (immediately after reaction start), 5, 10, 20, 30, and 60 min. Samples were added to microcentrifuge tubes containing 150 μL of ice-cold acetonitrile containing internal standard (clotrimazole; for […] = 10.0 ng/mL + 0.5% (v/v) formic acid; for 1 and 2 = 2.0 ng/mL + 0.5% (v/v) formic acid; for VPL = 20.0 ng/mL + 0.1% (v/v) formic acid). Tubes were centrifuged (13,000× g, 5 min), and ~135 μL of supernatant transferred to polypropylene 96-well plates for analysis.
(§4) Chromatographic separation was achieved using a biphenyl column [Kinetix, 100 mm × 4.6 mm, 2.6 μm; Phenomenex (Sydney, Australia)], coupled with a gradient elution with mobile phases containing acetonitrile/H2O/0.5% formic acid. Analysis was conducted in positive ion multiple reaction monitoring (MRM) mode with argon as the collision gas. Optimum MS/MS conditions were established prior to incubations by direct infusion of individual solutions of 1, 2, and 3 into the LC-MS/MS. To ensure adequate sensitivity of analysis, multiple mass transitions were summed for all three test compounds.
(§5) LN % remaining vs. time data for each data set were fitted to an exponential decay function to determine the first-order rate constant (k) for substrate depletion. For Equations (5)–(7), scaling parameters used were described elsewhere.

[4] = Stability in liver microsomes; assay type: in vitro ADME, human; conditions: for half-life at 1 µM: both sexes, human, liver microsomes
Experimental: as §3, §4, §5

P. aeruginosa = test system: P. aeruginosa; set-up: method as in PMID 24801877; conditions: previous work, different culture medium and inoculum possible; cited from earlier work
[5] = compound alone (1 86.2, 2 69.1, 3 53.1/106.2 µg/mL)
[6] = in combination with ciprofloxacin
[7] = pH 7.4, no NRS, compound 1 between 20 and 60 min, compound 2 over 30 min, read-out: half-life of degradation, negative control (no NRS added)
[8] = pH 7.4, with NADPH regeneration system, 1.0 µM, 0.5 mg/mL microsomes, read-out: half-life of degradation

| Structure (SMILES) | antimicrobial activity against P. aeruginosa PAO1 [1] | enhancement of the activity of tobramycin or meropenem (planktonic PAO1) | MIC of ciprofloxacin reduced to (planktonic PAO1) | synergy with ciprofloxacin (planktonic PAO1) | efflux pump inhibition (intracellular EtBr accumulation) [2] | interaction with ciprofloxacin on biofilms (PAO1 biofilms) | biofilm after treatment (PAO1 biofilms; [5]) | biofilm after treatment (PAO1ΔpslA biofilms; [6]) | effect in combination with ciprofloxacin (PDO300 biofilms) | biofilm after treatment (PDO300 biofilms) | effect in combination with ciprofloxacin (PAO1ΔpelF biofilms) | metabolic stability [3] | hepatic extraction [3] | level of hepatic extraction [3] | half-life at 1 µM [3, 7] | half-life at 1 µM [3, 8] | metabolic stability [4] | MIC (P. aeruginosa) | other results |
| --- | --- | --- | --- | --- | --- | --- | --- | --- | --- | --- | --- | --- | --- | --- | --- | --- | --- | --- | --- |
| COc1c(Br)cc(/C=C/C(=O)NCCCNCCCCNCCCN)cc1Br [Compound 1, ianthelliformisamine A] | no antimicrobial activity | did not enhance | 1/3 | worked synergistically | comparable EtBr accumulation with untreated bacteria | synergistically | remained unaffected | eradicated | synergistic effects | slightly reduced | synergistic effects | moderate degradation | 0.48 | intermediate | ~45 min | 38.2 min | substantial instability; also recorded: significant instability | 172.4 µg/mL (≈ 331 µM) | biofilm after treatment (PAO1 biofilms; compound 86.2 µg/mL + ciprofloxacin 1/3 MIC): Complete biofilm inhibition |
| COc1c(Br)cc(/C=C/C(=O)NCCCNCCCCN)cc1Br [Compound 2, ianthelliformisamine B] | no antimicrobial activity | did not enhance | 1/4 | worked synergistically | comparable EtBr accumulation with untreated bacteria | no effect | remained unaffected | eradicated | synergistic effects | slightly reduced | synergistic effects | moderate degradation; also recorded: moderately degraded | 0.42 | intermediate | 90 min | 42.8 ± 7.6 min | moderate degradation; also recorded: moderately degraded | > 138.2 µg/mL | half-life at 1 µM ([4]; pH 7.4, no NRS, 30-min incubation, read-out: half-life of degradation, negative control (no NRS added)): 103 min; half-life at 1 µM [4, 8]: 35.7 ± 2.1 min; hepatic extraction ([4]; calculated from microsomal half-life, fu = 1 assumed): 0.61; level of hepatic extraction ([4]; classification system of Houston 1994): intermediate |
| COc1c(Br)cc(/C=C/C(=O)NCCCNCCCCNCCCNC(=O)/C=C/c2cc(Br)c(OC)c(Br)c2)cc1Br [Compound 3, ianthelliformisamine C] |  |  |  | limited synergy | is an efflux pump inhibitor | antagonistically | slightly reduced |  |  | completely eradicated | no effect | metabolically stable |  |  |  |  | metabolically stable | ~ 26.55 µg/mL | MIC ([1]; Pseudomonas aeruginosa, planktonic (free-living) PAO1, LB medium, 18 h, 37 °C): 53.1 µg/mL; level of intracellular EtBr accumulation relative to CCCP [2]: greater than that mediated by reference compound CCCP; efflux pump inhibition (intracellular EtBr accumulation) ([2]; listed as ianthelliformisamine C): inhibited the efflux pump; biofilm after treatment (PAO1ΔpslA biofilms; alone): completely dispersed the biofilm; biofilm after treatment (PAO1ΔpelF biofilms; compound alone): no effect |
